Measured values reported in ChEMBL document CHEMBL3046759, “Seed and leaf treatments with natural compounds to induce resistance against Peronospora parasitica in Brassica oleracea” (2012).
Active and inactive are the calls of the source. No cut-off for these calls is given here.

How the values were obtained:
Brassica oleracea [1] = experiment: Induction of systemic acquired resistance in Brassica oleracea (white cabbage) plants assessed as increase in glucanase activity at 10 mM sprayed on seeds by colorimetric assay; assay type: functional, organism-based
Brassica oleracea [2] = experiment: Induction of systemic acquired resistance in Brassica oleracea (white cabbage) plants assessed as increase in chitinase activity at 10 mM sprayed on seeds by colorimetric assay; assay type: functional, organism-based
Brassica oleracea [3] = experiment: Induction of systemic acquired resistance in Brassica oleracea (white cabbage) plants assessed as increase in glucanase activity at 10 mM sprayed on leaves of 3 weeks old seedlings by colorimetric assay; assay type: functional, organism-based
Brassica oleracea [4] = experiment: Induction of systemic acquired resistance in Brassica oleracea (white cabbage) plants assessed as increase in chitinase activity at 10 mM sprayed on leaves of 3 weeks old seedlings by colorimetric assay; assay type: functional, organism-based
[5] = test system: Hyaloperonospora parasitica; experiment: Induction of systemic acquired resistance against Hyaloperonospora parasitica-induced downy mildew disease in white cabbage assessed as infected leaf area at 1 mM sprayed on leaves of one week old seedlings relative to untreated control; assay type: functional, organism-based
[6] = test system: Hyaloperonospora parasitica; experiment: Induction of systemic acquired resistance against Hyaloperonospora parasitica-induced downy mildew disease in white cabbage assessed as infected leaf area sprayed on leaves of one week old seedlings relative to untreated control; assay type: functional
Brassica oleracea [7] = experiment: Induction of systemic acquired resistance in Brassica oleracea (white cabbage) plants assessed as increase in glucanase activity at 1 mM sprayed on seeds by colorimetric assay; assay type: functional, organism-based
Brassica oleracea [8] = experiment: Induction of systemic acquired resistance in Brassica oleracea (white cabbage) plants assessed as increase in glucanase activity at 1 mM sprayed on leaves of 3 weeks old seedlings by colorimetric assay; assay type: functional, organism-based
Brassica oleracea [9] = experiment: Induction of systemic acquired resistance in Brassica oleracea (white cabbage) plants assessed as increase in chitinase activity at 1 mM sprayed on seeds by colorimetric assay; assay type: functional, organism-based
Brassica oleracea [10] = experiment: Induction of systemic acquired resistance in Brassica oleracea (white cabbage) plants assessed as increase in chitinase activity at 1 mM sprayed on leaves of 3 weeks old seedlings by colorimetric assay; assay type: functional, organism-based
[11] = test system: Hyaloperonospora parasitica; experiment: Induction of systemic acquired resistance against Hyaloperonospora parasitica-induced downy mildew disease in white cabbage assessed as disease index at 1 mM sprayed on leaves exposed to compound for 2 to 48 hr measured 10 days after planting; assay type: functional, organism-based; conditions: TDE = time-dependent effect
Brassica oleracea [12] = experiment: Induction of systemic acquired resistance in Brassica oleracea (white cabbage) plants assessed as increase in chitinase activity at 1 mM sprayed on leaves exposed to compound for 2 to 48 hr measured 10 days after planting by colorimetric assay; assay type: functional, organism-based; conditions: TDE = time-dependent effect
Brassica oleracea [13] = experiment: Induction of systemic acquired resistance in Brassica oleracea (white cabbage) plants assessed as increase in glucanase activity at 1 mM sprayed on leaves exposed to compound for 2 to 48 hr measured 10 days after planting by colorimetric assay; assay type: functional, organism-based; conditions: TDE = time-dependent effect

Q: With MANGANESE CHLORIDE ANHYDROUS as the molecule, how does the Activity (Brassica oleracea [1]) read?
A: Its Activity is “inactive”.

Q: And the Activity (Brassica oleracea [2])?
A: Its Activity is “inactive”.

Q: What about the Activity (Brassica oleracea [3]) of the same molecule?
A: The Activity was “Active”.

Q: And the Activity (Brassica oleracea [4])?
A: The Activity was “Active”.

Q: CUPRIC SULFATE was tested. Which Activity [5] did it give?
A: Its Activity is 0.01%.

Q: How did the Activity [6] turn out when `CCCOC(=O)NCCCN(C)C.Cl` [PROPAMOCARB HYDROCHLORIDE] was run?
A: Its Activity is 56.4%.

Q: What does the source list for `O=C(O)c1cc(Cl)nc(Cl)c1`?
A: Activity (Brassica oleracea [7]): Active; Activity (Brassica oleracea [8]): Active; Activity (Brassica oleracea [9]): Active; Activity (Brassica oleracea [10]): Active; Activity [11]: tde; Activity (Brassica oleracea [12]): tde; Activity (Brassica oleracea [13]): tde
